Like-named read-outs stand apart in the source and are kept apart here.
Assays:
tankyrase-2 = biological target: T1, tankyrase-2 (Homo sapiens, UniProt Q9H2K2); test: Tankyrase-2 enzyme inhibition test (Tankyrase-2 Chemiluminescent Assay Kit); type: biochemical; conditions: autoribosylation of GST-tankyrase-2 fusion protein, chemiluminescence
T1 construct: purchased BPS Bioscience, Inc. 80566
T1 sequence (Q9H2K2 1-1166): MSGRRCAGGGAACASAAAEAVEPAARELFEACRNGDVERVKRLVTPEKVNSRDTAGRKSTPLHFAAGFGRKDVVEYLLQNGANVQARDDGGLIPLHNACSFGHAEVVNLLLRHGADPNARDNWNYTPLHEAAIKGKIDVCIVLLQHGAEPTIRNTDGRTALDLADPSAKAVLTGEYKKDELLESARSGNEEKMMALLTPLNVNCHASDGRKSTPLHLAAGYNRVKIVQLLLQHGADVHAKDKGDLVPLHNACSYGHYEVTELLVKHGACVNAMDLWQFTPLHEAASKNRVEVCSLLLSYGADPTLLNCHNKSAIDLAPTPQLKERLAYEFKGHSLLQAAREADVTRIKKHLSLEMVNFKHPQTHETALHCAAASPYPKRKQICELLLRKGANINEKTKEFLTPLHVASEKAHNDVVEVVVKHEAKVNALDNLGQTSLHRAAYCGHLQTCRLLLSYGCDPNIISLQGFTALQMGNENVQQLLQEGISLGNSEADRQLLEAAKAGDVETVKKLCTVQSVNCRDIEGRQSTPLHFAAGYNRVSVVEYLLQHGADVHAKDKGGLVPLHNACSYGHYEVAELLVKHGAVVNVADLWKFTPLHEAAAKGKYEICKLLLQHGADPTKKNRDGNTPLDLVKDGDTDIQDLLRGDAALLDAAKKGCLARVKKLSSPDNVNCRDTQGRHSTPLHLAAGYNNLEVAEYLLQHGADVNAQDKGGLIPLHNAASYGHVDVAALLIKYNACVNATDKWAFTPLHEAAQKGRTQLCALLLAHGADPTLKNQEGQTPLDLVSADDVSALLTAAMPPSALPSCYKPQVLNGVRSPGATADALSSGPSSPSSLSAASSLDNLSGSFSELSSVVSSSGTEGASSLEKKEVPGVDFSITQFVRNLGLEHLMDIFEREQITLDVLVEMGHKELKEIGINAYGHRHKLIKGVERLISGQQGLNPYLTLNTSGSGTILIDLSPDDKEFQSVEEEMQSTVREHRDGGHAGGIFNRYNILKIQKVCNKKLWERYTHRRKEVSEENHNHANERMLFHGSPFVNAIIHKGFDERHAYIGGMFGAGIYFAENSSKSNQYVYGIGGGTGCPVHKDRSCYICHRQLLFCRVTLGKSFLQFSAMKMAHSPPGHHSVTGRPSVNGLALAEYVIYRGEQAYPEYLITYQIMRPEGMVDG
Protocol: Test Example 2: Tankyrase-2 Enzyme Inhibition Test
The enzyme activity of tankyrase-2 was evaluated using Tankyrase-2 Chemiluminescent Assay Kit (BPS Bioscience, Inc., Catalog No. 80566). The Tankyrase-2 Chemiluminescent Assay Kit is a kit for evaluating the enzyme activity of tankyrase-2 using autoribosylation of glutathione-S-transferase (GST)-tankyrase-2 fusion protein as an index. All the experimental materials except for PBS (PBST) buffer containing phosphate-buffered saline (PBS) and 0.05% Tween 20 are all included in the kit. The GST-tankyrase-2 enzyme diluted with 50 μL of 1× tankyrase buffer was added to the wells of a 96-well plate coated with glutathione. After the plate was left to stand overnight at 4° C., the plate was washed 3 times with the PBST buffer. 150 μL of blocking buffer was added thereto, and the plate was left to stand at room temperature for 30 minutes to block the wells. The plate was washed 3 times with the PBST buffer. Before the ribosylation reaction, an assay mixture containing a biotinylated substrate and a test compound diluted with 1× tankyrase buffer were mixed, whereby a reaction mixture was prepared. In order to start the ribosylation reaction, 50 μL of the reaction mixture was added to the wells. In a blank well, 1× tankyrase buffer was added in place of the reaction mixture containing a biotinylated substrate. The plate was left to stand at 30° C. for 1 hour. After the reaction, the plate was washed 3 times with the PBST buffer. Streptavidin-horseradish peroxidase (HRP) was diluted to 50-fold with the blocking buffer. The diluted streptavidin-HRP was added to the wells, and the plate was left to stand at room temperature for 30 minutes. The plate was washed 3 times with the PBST buffer. Immediately before use, 50 μL of the HRP chemiluminescent substrate A and 50 μL of the HRP chemiluminescent substrate B were mixed and 100 μL of the resulting mixture was added to the wells. The chemiluminescence was measured using a chemiluminescence measuring apparatus. The inhibition ratio was obtained according to the following formula 2. [Math. 2] Inhibition ratio (%)=100−{(chemiluminescence intensity when test compound was added)−(chemiluminescence intensity of blank)}/{(chemiluminescence intensity of control)−(chemiluminescence intensity of blank)}×100 Formula 2

[1] = system: T-cell factor (TCF)-luciferase reporter using Wnt pathway as index; test: Inhibitory activity against TCF-luciferase reporter using Wnt pathway as index (DLD-1/TCF-Luc cells); type: cell-based, human; conditions: Homo sapiens, read-out: Inhibition ratio (%) at 1 μmol/L
Protocol: Test Example 1: Inhibitory Activity Against T-Cell Factor (TCF)-Luciferase Reporter Using Wnt Pathway as Index
The inhibitory activity of test compounds against Wnt pathway was evaluated by the following method.
A human colorectal adenocarcinoma cell line DLD-1 (Japanese Collection of Research Bioresources) was cultured in RPMI-1640 medium (Gibco/Life Technologies, Inc.) containing 10% fetal bovine serum (Gibco/Life Technologies, Inc.), 10 mmol/L of a 4-(2-hydroxyethyl)-1-piperazineethanesulfonic acid (HEPES) buffer solution (Gibco/Life Technologies, Inc.), 1 mmol/L of a sodium pyruvate solution (Gibco/Life Technologies, Inc.), 4.5 g/L of a D-(+)-glucose solution (Sigma-Aldrich, Inc.), 100 units/mL penicillin (Gibco/Life Technologies, Inc.) and 100 μg/mL of streptomycin (Gibco/Life Technologies, Inc.) under the conditions of 37° C. and 5% carbon dioxide gas. The DLD-1 cells were seeded in a 10 cm dish, and 20 μg of a luciferase gene plasmid pGL4.27 having a TCF responsive sequence inserted therein was transfected into the cells using 10 μL of Attractene (Qiagen, Inc.) according to the protocol attached to the product. A stably expressing cell line (DLD-1/TCF-Luc) was selected using […] of hygromycin B (Wako Pure Chemical Industries Ltd.). The DLD-1/TCF-Luc cells were detached with trypsin and seeded in a 384-well plate, and a test compound was added at different concentrations. After 18 hours, the luciferase activity was measured using Steady-Glo™ Luciferase Assay System (Promega, Inc.).
The inhibition ratio was obtained according to the following formula 1. The inhibition ratio (%) of the compound of the present invention at 1 μmol/L against the TCF-luciferase reporter using the Wnt pathway as an index is shown in Table 6. [Math. 1] Inhibition ratio (%)=100−{(luciferase activity when test compound was added)−(luciferase activity of blank)}/{(luciferase activity of control)−(luciferase activity of blank)}×100 Formula 1

[2] = 1 μmol/L, DLD-1/TCF-Luc cells, luciferase activity after 18 hours

| Structure (SMILES) | Inhibition ratio (%) at 1 μmol/L (tankyrase-2) [%] | inhibition at 1 µM ([1]; DLD-1, 18 h) [%] | inhibition at 1 µM [1, 2] [%] |
| --- | --- | --- | --- |
| COc1cc2ncnc(N3CCC(CN4Cc5ccccc5N(c5cccc([N+](=O)[O-])c5)C4=O)CC3)c2cc1OC [Compound 8, 3-{[1-(6,7-Dimethoxyquinazolin-4-yl)piperidin-4-yl]methyl}-1-(3-nitrophenyl)-3,4-dihydroquinazolin-2(1H)-one] | 90 | 73 |  |
| COc1cc2ncnc(N3CCC(CN4Cc5ccccc5N(c5ccnc(C#N)c5)C4=O)CC3)c2cc1OC [Compound 9, 4-(3-{[1-(6,7-Dimethoxyquinazolin-4-yl)piperidin-4-yl]methyl}-2-oxo-3,4-dihydroquinazolin-1(2H)-yl)picolinonitrile] | 91 | 74 |  |
| COc1cc2ncnc(N3CCC(CN4Cc5ccccc5N(c5c[nH]c(=O)c(C#N)c5)C4=O)CC3)c2cc1OC [Compound 12, 5-(3-{[1-(6,7-Dimethoxyquinazolin-4-yl)piperidin-4-yl]methyl}-2-oxo-3,4-dihydroquinazolin-1(2H)-yl)-2-oxo-1,2-dihydropyridine-3-carbonitrile] | 88 |  | 80 |
| COc1cc2ncnc(N3CCC(CN4Cc5ccccc5N(c5cccc(S(N)(=O)=O)c5)C4=O)CC3)c2cc1OC [Compound 13, 3-(3-{[1-(6,7-Dimethoxyquinazolin-4-yl)piperidin-4-yl]methyl}-2-oxo-3,4-dihydroquinazolin-1(2H)-yl)benzenesulfonamide] | 89 |  | 80 |
| COc1cc2ncnc(N3CCC(CN4Cc5ccccc5N(c5ccc(C(=O)O)c(C#N)c5)C4=O)CC3)c2cc1OC [Compound 15, 2-Cyano-4-(3-{[1-(6,7-dimethoxyquinazolin-4-yl)piperidin-4-yl]methyl}-2-oxo-3,4-dihydroquinazolin-1(2H)-yl)benzoic acid] | 92 |  | 84 |
| COc1cc2ncnc(N3CCC(CN4Cc5ccccc5N(C5CCOCC5)C4=O)CC3)c2cc1OC [Compound 16, 3-{[1-(6,7-Dimethoxyquinazolin-4-yl)piperidin-4-yl]methyl}-1-(tetrahydro-2H-pyran-4-yl)-3,4-dihydroquinazolin-2(1H)-one] | 71 |  | 63 |
| COc1cc2ncnc(N3CCC(O)(CN4Cc5ccccc5N(c5ccnc(C#N)c5)C4=O)CC3)c2cc1OC [Compound 18, 4-(3-{[1-(6,7-Dimethoxyquinazolin-4-yl)-4-hydroxypiperidin-4-yl]methyl}-2-oxo-3,4-dihydroquinazolin-1(2H)-yl)picolinonitrile] | 79 |  | 80 |
| COc1cc2ncnc(N3CCC(CN4Cc5ccncc5N(c5ccnc(C#N)c5)C4=O)CC3)c2cc1OC [Compound 21, 4-(3-{[1-(6,7-Dimethoxyquinazolin-4-yl)piperidin-4-yl]methyl}-2-oxo-3,4-dihydropyrido[3,4-d]pyrimidin-1(2H)-yl)picolinonitrile] | 93 |  | 76 |
| COc1cc2ncnc(N3CCC(CN4Cc5cccnc5N(c5ccnc(C#N)c5)C4=O)CC3)c2cc1OC [Compound 22, 4-(3-{[1-(6,7-Dimethoxyquinazolin-4-yl)piperidin-4-yl]methyl}-2-oxo-3,4-dihydropyrido[2,3-d]pyrimidin-1(2H)-yl)picolinonitrile] | 98 |  | 75 |
| COc1cc2ncnc(N3CCC(CN4Cc5nccnc5N(c5ccnc(C#N)c5)C4=O)CC3)c2cc1OC [Compound 24, 4-(3-{[1-(6,7-Dimethoxyquinazolin-4-yl)piperidin-4-yl]methyl}-2-oxo-3,4-dihydropteridin-1(2H)-yl)picolinonitrile] | 92 |  | 86 |
| N#Cc1cccc(N2C(=O)N(CC3CCN(c4ncnc5cc(C(=O)O)ccc45)CC3)Cc3ccccc32)c1 [Compound 25, 4-(4-{[1-(3-Cyanophenyl)-2-oxo-1,2-dihydroquinazolin-3(4H)-yl]methyl}piperidin-1-yl)quinazoline-7-carboxylic acid] | 81 | 86 |  |
| N#Cc1cccc(N2C(=O)N(CC3CCN(c4ncnc5c[n+]([O-])ccc45)CC3)Cc3ccccc32)c1 [Compound 29, 4-(4-{[1-(3-Cyanophenyl)-2-oxo-1,2-dihydroquinazolin-3(4H)-yl]methyl}piperidin-1-yl)pyrido[3,4-d]pyrimidine-7-oxide] | 87 | 74 |  |
| N#Cc1cc(N2C(=O)N(CC3CCN(c4nccn5ccnc45)CC3)Cc3ccccc32)ccn1 [Compound 30, 4-(3-{[1-(Imidazo[1,2-a]pyrazin-8-yl)piperidin-4-yl]methyl}-2-oxo-3,4-dihydroquinazolin-1(2H)-yl)picolinonitrile] | 92 | 69 |  |
| COc1cncnc1N1CCC(CN2Cc3ccccc3N(c3ccnc(C#N)c3)C2=O)CC1 [Compound 32, 4-(3-{[1-(5-Methoxypyrimidin-4-yl)piperidin-4-yl]methyl}-2-oxo-3,4-dihydroquinazolin-1(2H)-yl)picolinonitrile] | 94 | 76 |  |
